Measurements reported in patent publication US8022036B2, “Use of thymosin alpha 1 for the treatment of immunological diseases” (Sigma-Tau Industrie Farmaceutiche Riunite S.p.A., priority 2006, dated 2011).
No end group written: not given here.

Key:
IDO = IDO expression (immunoblotting) and kynurenine production in DCs; type: cell-based, mouse
Protocol: IDO expression and functional activity were assessed as described in Nat. Immunol. […] Generation, purification and activity of T reg cells Splenic CD4+ T-cells were cocultured with conidia-pulsed DCs for 5 days […] before flow cytometry or ELISPOT assay. 1-MT (Sigma-Aldrich) was used at […].
Cells were assessed for IDO protein expression by immunoblotting and for kynurenine production. Positive and negative controls consisted of IDO protein-expressing MC24 transfectants and mock-transfected MC22 cells, respectively (not shown in the figure).

[1] = test system: lung homogenates, TLN CD4+ T cells; assay: Inflammatory/Th/T reg responses in lung and TLN of infected HSCT mice given DCs (ELISA, ELISPOT, RT-PCR, flow cytometry); type: in vivo, mouse
Protocol: (§1) Mice received twice intraperitoneal injections of DCs, at weekly interval, starting a day after HSCT and infected a week after the last DC administration. Three days later, lung homogenates, CD4+ T cells (>98% on FACS analysis), CD4+CD25− (>98%) or CD4+CD25+ (>82%) purified with the specific Miltenyi Biotec isolation kits were assessed for pattern of pro- and anti-inflammatory (TNF-a/IL-10 in lung homogenates), Th1 (IFN-γ) or Th2 (IL-4) cytokine production by CD4+ cells stimulated with Aspergillus-pulsed DCs (Blood. 2003; 102:3807-3814) frequency of CD25+ IL-10^+ TGF-β+ T reg cells, lymphoproliferation and gene expression by RT-PCR. For proliferation, TLN CD4+ T lymphocytes were plated (10^5 cells/well) with 10^5 cells/well irradiated allogeneic splenocytes or autologous spDCs pulsed with conidia or 10 μg/mL Con A for five days before H^3-thymidine labeling.
RNA extraction, synthesis and PCR of cDNA, sequences of gene-specific primers, annealing temperatures and amplification cycles were done as described in J. Immunol. 2006; 176:1712-1723). Amplification efficiencies were validated and normalized against GAPDH.
(A) TNF-a/IL-10 levels were assessed by specific ELISA in lung homogenates and IFN-γ/IL-4 production were assessed in TLN CD4+ T cells cocultured with Aspergillus-pulsed DCs. Bars indicate standard errors. TLN CD4+CD25+ T cells producing IL-10 or TGF-β were numbered by ELISPOT assay. Results are expressed as the mean number of cytokine-producing cells (±SE) per 2×10^5 cells. *P<0.05, DC-treated versus untreated mice. (**) P<0.05, Thymosin alpha 1-treated DCs versus untreated DCs.
(B) Total RNA was extracted from freshly purified CD4+ T cells from TLN of treated or untreated (None) mice. The expressions of the different mRNAs in each cell population were determined by RT-PCR. The expression of a housekeeping gene, Gapdh mRNA, was used as an internal control. The data shown are representative results of three experiments.
(C) Phenotypic analysis of cells isolated from lung or TLN of mice infused or not (None) with different types of DCs, (−) indicating uninfected, untreated mice. CD4+ T cells were sequentially reacted with PE-conjugated anti-CD25 (PC61) and FITC-conjugated anti-CD69 (clone H1.2F3) mAbs. Numbers represent the percentage of positive cells over total cells analyzed. Control staining of cells with irrelevant Ab was used to obtain background fluorescence values. Histograms are representative of one out of four independent experiments.

[2] = test system: TLN CD4+ T lymphocytes, neutrophils; assay: Proliferation of TLN cells and suppressive activity of CD4+CD25+ T reg cells from DC-treated HSCT mice; type: in vivo, mouse
Protocol: IDO expression and functional activity were assessed as described in Nat. Immunol. 2002; 3:1097-1101. Generation, purification and activity of T reg cells Splenic CD4+ T-cells were cocultured with conidia-pulsed DCs for 5 days […] before flow cytometry or ELISPOT assay. 1-MT (Sigma-Aldrich) was used at 2 μM. CD4+CD25+ and CD4+CD25− cells (>90% pure on FACS analysis) were separated by magnetic cell sorting from lung and TLN (J. Immunol. 2006; 176:1712-1723). For T reg cell inhibition, 5×10^4 TLN T reg cells were added to 3×10^5 CD4+CD25− cells, both from transplanted mice, stimulated with 3×10^4 autologous Aspergillus conidia-pulsed spDCs or with or 1.5×10^5 allogeneic spDCs from naïve donor mice for five days before H^3-thymidine labeling. Purified peritoneal CD 11b+Gr−1+PMN (>98% pure on FACS analysis) (2×10^6) were exposed to resting conidia in the presence of 4×10^5 CD4+CD25+ for 60 min for oxidant production or 24 hours for cytokine production (J. Immunol. 2006; 176:1712-1723).
as §1
(A) Murine CD4+ T lymphocytes from TLN of transplanted mice were stimulated with irradiated allogeneic splenocytes, autologous splenic DCs stimulated with conidia or Concanavalin A. T cell proliferation was assessed in a 5-day MLR assay and measured by H^3thymidine incorporation over the last 8 hours, (*) P<0.05, transplanted versus donor mice. (**) P<0.05, T cell- and/or DC-treated mice versus untreated mice. (***) P<0.05, Thymosin alpha 1-treated DCs versus untreated DCs. […] (D) Peritoneal neutrophils (PMN) were exposed to resting conidia in the presence of lung CD4+CD25+ T cells from FL-DCtreated (a) or Thymosin alpha 1-GM-DC-treated mice (b) for 60 min (for oxidant production, expressed as nanomoles O2-/10^6 cells) or 24 hours for cytokine production (pg/mL by ELISA). […]

[3] = mice given Thymosin alpha 1-treated GM-DCs
[4] = mice receiving Thymosin alpha 1-treated GM-DCs

Thymosin alpha 1: naturally occurring thymic peptide; supplied as purified, endotoxin-free sterile lyophilized acetylated polypeptide from SciClone Pharmaceuticals (Ac-SDAAVDTSSEITTKDLKEKKEVVEEAEN; UniProt P06454 2-29, looked up)
induction of IDO protein and function in DCs from TLR9-/- or IFN-aβR-/- mice (IDO; DCs from knockout mice): not observed | induction of functional IDO (protein, tryptophan to kynurenine conversion) (IDO; FL-DCs and GM-DCs): Induction of functional IDO by Thymosin alpha 1 in both FL-DCs and GM-DCs was confirmed | compartmentalization of induced T reg (lungs vs TLN), FL-DCs ([1]; Thymosin alpha 1-treated FL-DCs): the opposite was true | TNF-a/IL-10 production in lung homogenates ([1]; Thymosin alpha 1-treated GM-DCs, compared with TNF-a high, IL-10 low in untreated or GM-DC mice): the reverse being true | compartmentalization of induced T reg (lungs vs TLN), GM-DCs ([1]; Thymosin alpha 1 treated GM-DCs): induced T reg in the lungs more than TLN | CD62L marker on CD25+ T cells [1, 3]: stained positive | Foxp3 mRNA in TLN CD4+ T cells (RT-PCR) [1, 3]: expressed | IFN-γ production by TLN CD4+ T cells [1, 3]: higher | IL-4 production by TLN CD4+ T cells [1, 3]: lower | CD69 activation marker on CD4+CD25+ T cells ([1]; mice given Thymosin alpha 1-treated GM-DCs or FL-DCs): did not stain positive | TNF-a and oxidant production of neutrophils in the presence of lung T reg cells ([2]; T reg fraction induced by Thymosin alpha 1-treated GM-DCs): significantly inhibited | alloreactivity and antigen-specific responses of CD4+CD25- T cells in the presence of CD4+CD25+ T cells ([2]; T reg from mice receiving Thymosin alpha 1-treated GM-DCs): both reduced | alloreactivity (proliferation of TLN cells to allogeneic splenocytes) [2, 4]: decreased | pathogen-specific reactivity (proliferation to Aspergillus conidia) [2, 4]: recovered
